Assay results published in PubChem BioAssay AID248 (DTP/NCI, 2004).
Inconclusive results and toxic doses are left out.

Test system: L1210 leukemia ip in BDF1 mice, survival T/C
Assay: NCI In Vivo Anticancer Drug Screen. Data for tumor model L1210 Leukemia (intraperitoneal) in B6D2F1 (BDF1) mice
Conditions: endpoint: mean survival time, higher = longer survival
Outline: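 Value reflects the ratio of survival in compound-treated mice to survival in vehicle-treated controls, with both groups carrying the same transplanted tumor.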

[1] = dose: 100.0 mg/kg/injection, schedule: Q01DX009 (ip), vehicle: saline with Tween-80
[2] = dose: 200.0 mg/kg/injection, schedule: Q01DX009 (ip), vehicle: saline with Tween-80
[3] = dose: 100.0 mg/kg/injection, schedule: Q01DX009 (ip), vehicle: Klucel (hydroxypropylcellulose) (HPC)
[4] = dose: 200.0 mg/kg/injection, schedule: Q01DX009 (ip), vehicle: Klucel (hydroxypropylcellulose) (HPC)
[5] = dose: 400.0 mg/kg/injection, schedule: Q01DX009 (ip), vehicle: Klucel (hydroxypropylcellulose) (HPC)
[6] = dose: 100.0 mg/kg/injection, schedule: Q04DX003 (ip), vehicle: saline with Tween-80
[7] = dose: 200.0 mg/kg/injection, schedule: Q04DX003 (ip), vehicle: saline with Tween-80
[8] = dose: 100.0 mg/kg/injection, schedule: Q01DX001 (ip), vehicle: carboxymethylcellulose (CMC)
[9] = dose: 200.0 mg/kg/injection, schedule: Q01DX001 (ip), vehicle: carboxymethylcellulose (CMC)
[10] = dose: 400.0 mg/kg/injection, schedule: Q01DX001 (ip), vehicle: carboxymethylcellulose (CMC)

Cc1cc(N2CCC(N3CCCC3)CC2)nc(/N=C(\N)Nc2ccc(Cl)c(Cl)c2)n1 was tested, and the T/C (dose: 12.0 mg/kg/injection, schedule: Q01DX009 (ip), vehicle: saline) was 97 % of control, the T/C (dose: 25.0 mg/kg/injection, schedule: Q01DX009 (ip), vehicle: saline) was 106 % of control and the T/C (dose: 50.0 mg/kg/injection, schedule: Q01DX009 (ip), vehicle: saline) was 98 % of control.

In the case of CC(C)=C(c1ccc(C(C)(C)C)cc1)c1ccc(C(C)(C)C)cc1, the T/C [1] is reported as 94 % of control and the T/C [2] is reported as 95 % of control.

In the case of C/C=C/C(=O)Nc1cccc(Cl)c1, the T/C (dose: 100.0 mg/kg/injection, schedule: Q01DX009 (ip), vehicle: other) is reported as 92 % of control and the T/C (dose: 200.0 mg/kg/injection, schedule: Q01DX009 (ip), vehicle: other) is reported as 100 % of control.

For Cc1cc(C)c(C(C)(CS(C)(=O)=O)CS(C)(=O)=O)c(C)c1C(C)(CS(C)(=O)=O)CS(C)(=O)=O, the T/C [3] was 105 % of control, the T/C [4] was 102 % of control and the T/C [5] was 105 % of control.

For O=C(O)c1ccc(P(=O)(O)O)cc1[N+](=O)[O-], the T/C (dose: 50.0 mg/kg/injection, schedule: Q04DX003 (ip), vehicle: saline) was 95 % of control and the T/C (dose: 100.0 mg/kg/injection, schedule: Q04DX003 (ip), vehicle: saline) was 100 % of control.

For CCS(=O)(=O)c1ccc(NC(=O)OC2CCCCCC2)cc1, the T/C (dose: 100.0 mg/kg/injection, schedule: Q01DX001 (ip), vehicle: other) was 91 % of control, the T/C (dose: 200.0 mg/kg/injection, schedule: Q01DX001 (ip), vehicle: other) was 91 % of control and the T/C (dose: 400.0 mg/kg/injection, schedule: Q01DX001 (ip), vehicle: other) was 93 % of control.

For O=C(NCCCCN1CC1)C(=O)NCCCCN1CC1, the T/C (dose: 1.5 mg/kg/injection, schedule: Q04DX003 (ip), vehicle: Klucel (hydroxypropylcellulose) (HPC)) was 108 % of control, the T/C (dose: 3.0 mg/kg/injection, schedule: Q04DX003 (ip), vehicle: Klucel (hydroxypropylcellulose) (HPC)) was 118 % of control and the T/C (dose: 8.0 mg/kg/injection, schedule: Q04DX003 (ip), vehicle: Klucel (hydroxypropylcellulose) (HPC)) was 155 % of control. The T/C (dose: 18.0 mg/kg/injection, schedule: Q04DX003 (ip), vehicle: Klucel (hydroxypropylcellulose) (HPC)) was 177 % of control.

In the case of COC1=CC(=O)C(C2CC(=O)c3c(O)cc(O)cc3O2)=CC1=O (stereo not given), the T/C (dose: 25.0 mg/kg/injection, schedule: Q01DX009 (ip), vehicle: saline with Tween-80) is reported as 92 % of control, the T/C (dose: 50.0 mg/kg/injection, schedule: Q01DX009 (ip), vehicle: saline with Tween-80) is reported as 98 % of control and the T/C [1] is reported as 103 % of control.

For CCO/C=C/c1ccccc1, the T/C [1] was 101 % of control, the T/C [6] was 93 % of control and the T/C [2] was 96 % of control. The T/C [7] was 98 % of control and the T/C (dose: 400.0 mg/kg/injection, schedule: Q01DX009 (ip), vehicle: saline with Tween-80) was 90 % of control.

For CCN(c1ccc(Br)cc1)c1ccc(Br)cc1, the T/C [8] was 100 % of control, the T/C [9] was 94 % of control and the T/C [10] was 105 % of control.

In the case of CNC(=O)c1ccccc1N, the T/C [6] is reported as 100 % of control, the T/C [7] is reported as 95 % of control and the T/C (dose: 400.0 mg/kg/injection, schedule: Q04DX003 (ip), vehicle: saline with Tween-80) is reported as 98 % of control.

In the case of CC1Cc2cccc3ccc(=O)n(c23)C1 (stereo not given), the T/C [8] is reported as 91 % of control, the T/C [9] is reported as 100 % of control and the T/C [10] is reported as 98 % of control.

With O=C(Nc1cccc2ccccc12)OCc1ccccc1 the T/C (dose: 100.0 mg/kg/injection, schedule: Q04DX002 (ip), vehicle: Klucel (hydroxypropylcellulose) (HPC)) was 108 % of control, the T/C (dose: 200.0 mg/kg/injection, schedule: Q04DX002 (ip), vehicle: Klucel (hydroxypropylcellulose) (HPC)) was 89 % of control and the T/C (dose: 400.0 mg/kg/injection, schedule: Q04DX002 (ip), vehicle: Klucel (hydroxypropylcellulose) (HPC)) was 93 % of control.

In the case of BrCCCc1ccccc1, the T/C (dose: 75.0 mg/kg/injection, schedule: Q01DX001 (ip), vehicle: saline) is reported as 95 % of control and the T/C (dose: 150.0 mg/kg/injection, schedule: Q01DX001 (ip), vehicle: saline) is reported as 97 % of control.

For O=C1c2ccccc2-c2cc(Cl)cc(Cl)c21, the T/C [8] was 95 % of control, the T/C [9] was 96 % of control and the T/C [10] was 102 % of control.

With CCCCOC(=O)c1ccc(NC(=O)Nc2ccccc2CC)cc1 the T/C [3] was 102 % of control, the T/C [4] was 109 % of control and the T/C [5] was 94 % of control.

CC(=O)CC(=O)Nc1ccc(C)cc1C was tested, and the T/C (dose: 100.0 mg/kg/injection, schedule: Q04DX003 (ip), vehicle: Klucel (hydroxypropylcellulose) (HPC)) was 102 % of control, the T/C (dose: 200.0 mg/kg/injection, schedule: Q04DX003 (ip), vehicle: Klucel (hydroxypropylcellulose) (HPC)) was 98 % of control and the T/C (dose: 400.0 mg/kg/injection, schedule: Q04DX003 (ip), vehicle: Klucel (hydroxypropylcellulose) (HPC)) was 115 % of control.
